# Measured values from ChEMBL document CHEMBL3797052 (Eur J Med Chem, 2016).
# Experiments:
# Type in all cases: functional
# M14 = assay: Antiproliferative activity against human M14 cells assessed as growth inhibition after 48 hrs by sulforhodamine B assay; details: M14, 48 h
# 786-0 = assay: Antiproliferative activity against human 786-0 cells assessed as growth inhibition after 48 hrs by sulforhodamine B assay; details: 786-0, 48 h
# SK-MEL-5 = assay: Antiproliferative activity against human SK-MEL-5 cells assessed as growth inhibition after 48 hrs by sulforhodamine B assay; details: SK-MEL-5, 48 h
# NCI-H522 = assay: Antiproliferative activity against human NCI-H522 cells assessed as growth inhibition after 48 hrs by sulforhodamine B assay; details: NCI-H522, 48 h
# [1] = Antiproliferative activity against human HOP62 cells assessed as growth inhibition after 48 hrs by sulforhodamine B assay; details: HOP-62, 48 h
# [2] = Antiproliferative activity against human NCI-ADR-RES cells assessed as growth inhibition after 48 hrs by sulforhodamine B assay
# [3] = Antiproliferative activity against human DU145 cells assessed as growth inhibition after 48 hrs by sulforhodamine B assay; details: DU-145, 48 h
# [4] = Antiproliferative activity against human HCT116 cells assessed as growth inhibition after 48 hrs by sulforhodamine B assay; details: HCT-116, 48 h
# U-251 = assay: Antiproliferative activity against human U251 cells assessed as growth inhibition after 48 hrs by sulforhodamine B assay; details: U-251, 48 h
# [5] = read-out: LC50 (the source's name)
compound,measurement,setting,value
CNC(=O)c1cc(Oc2ccc(NC(=O)Nc3ccc(Cl)c(C(F)(F)F)c3)cc2)ccn1 [SORAFENIB],GI50,M14,2 µM
same,TGI,M14,5.01 µM
same,CC50,M14; [5],25.1 µM
same,GI50,786-0,3.16 µM
same,TGI,786-0,10 µM
same,TGI,SK-MEL-5,3.16 µM
same,CC50,SK-MEL-5; [5],5.01 µM
same,GI50,NCI-H522,2 µM
same,TGI,NCI-H522,6.31 µM
same,GI50,[1],2 µM
same,TGI,[1],7.94 µM
same,GI50,[2],2.51 µM
same,TGI,[2],7.94 µM
same,GI50,[3],3.16 µM
same,TGI,[3],10 µM
same,CC50,[3]; [5],50.1 µM
same,TGI,[4],3.98 µM
same,GI50,U-251,2 µM
same,TGI,U-251,6.31 µM
